Measured values published in paper PMC9090415, “Discovery of small molecule inhibitors of Plasmodium falciparum apicoplast DNA polymerase” (Journal of Enzyme Inhibition and Medicinal Chemistry, 2022).

Molecular target: P. falciparum apicoplast DNA polymerase (Pf-apPOL) (Plasmodium falciparum, UniProt Q8ILY1)
Assay: Fluorescence-based high-throughput DNA polymerase assay (molecular beacon), primary screen and dose-response
Type: biochemical
Settings: for DNA Pol: unit not given, 90 min, 10 µM; for % inhibition apPOL 180' 2.5 / % inhibition apPOL 180' 5 / % inhibition apPOL 180' 10 / % inhibition apPOL 180' 20 / % inhibition apPOL 180' 40 / % inhibition apPOL 180' 80: read at 180'
Method in brief: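 Single-point screening used 10 µM compound with 20 nM polymerase, 20 nM hairpin substrate and 6 µM dNTPs for 90 min at 25 °C. Confirmatory titrations (2.5–80 µM) followed fluorescence at three times, and IC50 was derived from a fit including a cooperativity term n.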

P. falciparum apicoplast DNA polymerase (Pf-apPOL), sequence (Q8ILY1 entry or part of it): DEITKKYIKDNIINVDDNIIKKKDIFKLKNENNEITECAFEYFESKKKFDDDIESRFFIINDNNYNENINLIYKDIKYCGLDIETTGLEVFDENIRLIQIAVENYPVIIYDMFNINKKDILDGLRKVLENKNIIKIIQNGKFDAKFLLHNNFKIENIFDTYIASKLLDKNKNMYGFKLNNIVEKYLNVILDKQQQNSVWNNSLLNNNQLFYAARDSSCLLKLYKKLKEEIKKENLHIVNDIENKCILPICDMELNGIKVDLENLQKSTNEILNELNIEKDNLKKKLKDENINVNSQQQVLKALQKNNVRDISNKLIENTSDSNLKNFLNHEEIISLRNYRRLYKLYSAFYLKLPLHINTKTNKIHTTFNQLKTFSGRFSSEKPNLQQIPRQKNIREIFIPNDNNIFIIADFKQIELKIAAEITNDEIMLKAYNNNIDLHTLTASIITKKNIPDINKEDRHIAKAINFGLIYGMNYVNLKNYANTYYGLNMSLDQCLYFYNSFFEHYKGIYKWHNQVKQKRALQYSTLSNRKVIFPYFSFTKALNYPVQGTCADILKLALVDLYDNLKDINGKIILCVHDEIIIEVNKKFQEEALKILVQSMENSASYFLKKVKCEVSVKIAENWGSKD

Q: What does the source list for Cc1ccc(N2CCC(NC(=O)Cc3cccs3)C2=O)cc1C (stereo not drawn) [Molecule 57, O=C(NC1CCN(C1=O)c1ccc(c(c1)C)C)Cc1cccs1]?
A: DNA Pol (186 hits, DNA Pol (screen value)): 30; DNA Pol ('DNA Pol' (screen value)): 30; % inhibition Apo pol 10' 2.5 (DRC-1, read at 10', concentration 2.5): -4.081%; % inhibition Apo pol 10' 5 (DRC-1, read at 10', concentration 5): 5.106%; % inhibition Apo pol 10' 10 (DRC-1, read at 10', concentration 10): 22.9359%; % inhibition Apo pol 10' 20 (DRC-1, read at 10', concentration 20): 41.5954%; % inhibition Apo pol 10' 40 (DRC-1, read at 10', concentration 40): 44.443%; % inhibition Apo pol 10' 80 (DRC-1, read at 10', concentration 80): 44.3208%; % inhibition Apol 90' 2.5 (DRC-1, read at 90', concentration 2.5): -2.123%; % inhibition Apol 90' 5 (DRC-1, read at 90', concentration 5): 4.8282%; % inhibition Apol 90' 10 (DRC-1, read at 90', concentration 10): 19.3171%; % inhibition Apol 90' 20 (DRC-1, read at 90', concentration 20): 42.7079%; % inhibition Apol 90' 40 (DRC-1, read at 90', concentration 40): 53.5477%; % inhibition Apol 90' 80 (DRC-1, read at 90', concentration 80): 61.4172%; % inhibition apPOL 180' 2.5 (DRC-1, concentration 2.5): -1.073%; % inhibition apPOL 180' 5 (DRC-1, concentration 5): 1.4295%; % inhibition apPOL 180' 10 (DRC-1, concentration 10): 11.4485%; % inhibition apPOL 180' 20 (DRC-1, concentration 20): 30.1368%; % inhibition apPOL 180' 40 (DRC-1, concentration 40): 47.6529%; % inhibition apPOL 180' 80 (DRC-1, concentration 80): 62.3607%; % inhibition Apo pol 5' (DRC-2, concentration 10): 24%; % inhibition Apo pol 5' (DRC-2, concentration 20): 24%; % inhibition ApPOL 90' (DRC-2, concentration 20): 47%; % inhibition ApPOL 90' (DRC-2, concentration 40): 47%; % inhibition Apo pol 5' 2.5 (DRC-2, read at 5', concentration 2.5): -1.72%; % inhibition Apo pol 5' 5 (DRC-2, read at 5', concentration 5): 2.54%; % inhibition Apo pol 5' 10 (DRC-2, read at 5', concentration 10): 24%; % inhibition Apo pol 5' 20 (DRC-2, read at 5', concentration 20): 24%; % inhibition Apo pol 5' 40 (DRC-2, read at 5', concentration 40): 6.44%; % inhibition Apo pol 5' 80 (DRC-2, read at 5', concentration 80): -4.26%; % inhibition Apol 40' 2.5 (DRC-2, read at 40', concentration 2.5): -1.82%; % inhibition Apol 40' 5 (DRC-2, read at 40', concentration 5): 5.58%; % inhibition Apol 40' 10 (DRC-2, read at 40', concentration 10): 32%; % inhibition Apol 40' 20 (DRC-2, read at 40', concentration 20): 44%; % inhibition Apol 40' 40 (DRC-2, read at 40', concentration 40): 39%; % inhibition Apol 40' 80 (DRC-2, read at 40', concentration 80): 37%; % inhibition ApPOL 90' 2.5 (DRC-2, read at 90', concentration 2.5): -2.11%; % inhibition ApPOL 90' 5 (DRC-2, read at 90', concentration 5): 5%; % inhibition ApPOL 90' 10 (DRC-2, read at 90', concentration 10): 30%; % inhibition ApPOL 90' 20 (DRC-2, read at 90', concentration 20): 47%; % inhibition ApPOL 90' 40 (DRC-2, read at 90', concentration 40): 47%; % inhibition ApPOL 90' 80 (DRC-2, read at 90', concentration 80): 48%; % inhibition apPOL 180' 2.5 (DRC-2, concentration 2.5): -1.11%; % inhibition apPOL 180' 5 (DRC-2, concentration 5): 3.34%; % inhibition apPOL 180' 10 (DRC-2, concentration 10): 22%; % inhibition apPOL 180' 20 (DRC-2, concentration 20): 43%; % inhibition apPOL 180' 40 (DRC-2, concentration 40): 49%; % inhibition apPOL 180' 80 (DRC-2, concentration 80): 55%
